Common to all, as to type: cell-based, rat
For assay [1], the system named is PYK2. As to the kind of experiment: Tyrosine phosphorylation of PYK2 in PC12 cells (immunoprecipitation, anti-phosphotyrosine immunoblot). As to conditions: PC12 cells, 37° C.
Assay [2] deals with Src. As to the kind of experiment: Src kinase activity in PC12 cells. To be noted: PC12 cells stimulated with LPA or bradykinin. As for the experimental part: (§1) Sadoshima & Izumo, EMBO J. 15:775-787 (1996); Wan et al., Nature 380:541-544 (1996). The EGF-receptor and erbB2 were also implicated in MAP kinase activation induced by LPA and other agonists of G-protein coupled receptors. Daub et al., Nature 379:557-564 (1996). We have tested whether LPA and bradykinin can activate Src and the EGF receptor in PC12 cells.
(§2) PC12 cells were left untreated (−) or stimulated with LPA (2.5 mM) or bradykinin (1 mM) for 3 min at 37° C. Src was immunoprecipitated and immunoblotted with antibodies against Src, anti-pY416^src antibodies or antibodies against PYK2.

Assay [3] has as its system EGF receptor. As to the kind of experiment: Activation of EGF receptor in PC12 cells.
Excerpt: as §1

Assay [4] deals with PYK2/Src complex. As to the kind of experiment: Association of PYK2 with activated Src in PC12 cells (co-immunoprecipitation). To be noted: LPA 2.5 mM or bradykinin 1 mM, 3 min, 37° C.
Excerpt: We examined the possibility of association between the two protein tyrosine kinases PYK2 and Src in response to LPA or bradykinin stimulation. Lysates from stimulated or unstimulated cells were subjected to immunoprecipitation with antibodies against Src followed by immunoblotting with antibodies against PYK2, against Src or anti-pY416src antibodies that specifically recognize activated Src. Liu et al., Oncogene 8:1119-1126 (1993).
as §2

lysophosphatidic acid [LPA]: in assay [1] (LPA 2.5 mM or bradykinin 1 mM, 3 min), the “tyrosine phosphorylation of PYK2” value is “rapid tyrosine phosphorylation of PYK2”. Further, in assay [1] (LPA 2.5 mM, bradykinin 1 mM 3 min, PMA 1 mM 10 min), the “increase in the phosphorylation state of PYK2 relative to unstimulated cells” value was 4 fold. The “increase in Src kinase activity” value in assay [2] is given as “approximately three to four”. Also, the “activation of EGF receptor” value in assay [3] is given as “unable to detect”. In assay [4], the “complex formation of PYK2 with activated Src” value is reported as “forms a complex with activated Src”.

The values are drawn from patent publication US20030119067A1, “PYK2 related products and methods” (Sugen, Inc., priority 1996, published 2003).
